Data: ChEMBL document CHEMBL1131203, “Second generation "peptoid" CCK-B receptor antagonists: identification and development of N-(adamantyloxycarbonyl)-alpha-methyl-(R)-tryptophan derivative (CI-1015) with an improved pharmacokinetic profile” (J Med Chem, 1998)

How the values were obtained:
[1] = Ratio of IC50 towards CCK-A receptor and CCK-B receptor
[2] = target: T1, Gastrin/cholecystokinin type B receptor (Mus musculus, UniProt P56481); assay: Inhibitory concentration against radioligand [125I]Bolton-Hunter labeled CCK-8 to cholecystokinin type B receptor in the mouse cerebral cortex; type: tissue-based
T1 sequence (P56481 whole entry): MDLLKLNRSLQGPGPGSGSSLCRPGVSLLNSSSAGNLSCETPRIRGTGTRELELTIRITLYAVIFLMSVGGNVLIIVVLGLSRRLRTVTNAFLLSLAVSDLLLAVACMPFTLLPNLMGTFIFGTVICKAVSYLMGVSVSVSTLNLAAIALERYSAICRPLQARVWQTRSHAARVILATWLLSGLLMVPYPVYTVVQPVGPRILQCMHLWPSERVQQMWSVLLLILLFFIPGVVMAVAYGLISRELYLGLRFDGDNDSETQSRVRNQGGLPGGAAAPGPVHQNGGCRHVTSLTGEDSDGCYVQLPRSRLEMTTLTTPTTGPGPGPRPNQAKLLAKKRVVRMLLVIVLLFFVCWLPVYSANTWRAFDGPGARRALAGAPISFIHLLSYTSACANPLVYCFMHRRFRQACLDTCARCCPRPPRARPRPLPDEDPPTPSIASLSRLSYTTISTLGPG

[3] = target: T2, Cholecystokinin receptor type A (Rattus norvegicus, UniProt P30551); assay: Inhibitory concentration against radioligand [125I]Bolton-Hunter labeled CCK-8 to cholecystokinin type A receptor in the rat pancreas
T2 sequence (P30551 whole entry): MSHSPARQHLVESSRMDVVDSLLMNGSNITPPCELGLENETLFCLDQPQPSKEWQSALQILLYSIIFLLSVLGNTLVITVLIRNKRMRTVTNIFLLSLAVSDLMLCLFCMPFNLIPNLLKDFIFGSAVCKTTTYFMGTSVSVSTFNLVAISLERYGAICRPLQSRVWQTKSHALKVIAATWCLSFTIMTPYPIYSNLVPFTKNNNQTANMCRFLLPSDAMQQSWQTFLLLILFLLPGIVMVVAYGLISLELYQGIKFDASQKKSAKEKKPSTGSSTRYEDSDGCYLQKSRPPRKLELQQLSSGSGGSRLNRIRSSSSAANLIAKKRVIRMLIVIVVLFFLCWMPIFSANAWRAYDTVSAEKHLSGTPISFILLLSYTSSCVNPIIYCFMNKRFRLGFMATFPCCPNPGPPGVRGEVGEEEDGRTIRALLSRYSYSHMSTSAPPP

| Structure (SMILES) | Ratio [1] | IC50 [2] [µM] | IC50 [3] [µM] |
| --- | --- | --- | --- |
| C[C@](Cc1c[nH]c2ccccc12)(NC(=O)OC1C2CC3CC(C2)CC1C3)C(=O)NC(Cc1ccccc1)Cc1ccccc1 (stereo partly specified) | 112 | 0.0199 | 2.24 |
| COC[C@@H]1CCCN1NC(=O)[C@@](C)(Cc1c[nH]c2ccccc12)NC(=O)OC1C2CC3CC(C2)CC1C3 (stereo partly specified) | 105 | 0.0654 | 6.9 |
| C[C@](Cc1c[nH]c2ccccc12)(NC(=O)OC1C2CC3CC(C2)CC1C3)C(=O)NN1CCCC1 (stereo partly specified) | 82 | 0.132 | 10.8 |
| COC(=O)C1(NC(=O)[C@@](C)(Cc2c[nH]c3ccccc23)NC(=O)OC2C3CC4CC(C3)CC2C4)CCCCC1 (stereo partly specified) | 10.4 | 0.191 | 1.99 |
| C[C@](Cc1c[nH]c2ccccc12)(NC(=O)OC1C2CC3CC(C2)CC1C3)C(=O)N[C@H]1CCCC[C@@H]1O (stereo partly specified) |  |  | 1.94 |
| C[C@](Cc1c[nH]c2ccccc12)(NC(=O)OC1C2CC3CC(C2)CC1C3)C(=O)CNC1CCCCC1 (stereo partly specified) | 10.6 | 0.314 | 3.33 |
| C[C@](Cc1c[nH]c2ccccc12)(NC(=O)OC1C2CC3CC(C2)CC1C3)C(=O)NC1CC2CCC1C2 (stereo in doubt; 22) [listing 1 of 2 here] | 7.5 |  |  |
| C[C@](Cc1c[nH]c2ccccc12)(NC(=O)OC1C2CC3CC(C2)CC1C3)C(=O)NC1CCCCCC1 (stereo partly specified) | 71 | 0.0455 | 3.23 |
| C[C@](Cc1c[nH]c2ccccc12)(NC(=O)OC1C2CC3CC(C2)CC1C3)C(=O)NN1CCCCCC1 (stereo partly specified) | 248 | 0.0122 | 3.04 |
| C[C@](Cc1c[nH]c2ccccc12)(NC(=O)OC1C2CC3CC(C2)CC1C3)C(=O)N[C@H]1CCCCC[C@@H]1O (stereo partly specified) | 65 | 0.0255 | 1.66 |
| C[C@](Cc1c[nH]c2ccccc12)(NC(=O)OC1C2CC3CC(C2)CC1C3)C(=O)NC1CCCCC1 (stereo partly specified) | 48 | 0.05 | 2.4 |
| COC[C@H]1CCCN1NC(=O)[C@@](C)(Cc1c[nH]c2ccccc12)NC(=O)OC1C2CC3CC(C2)CC1C3 (stereo partly specified) | 1370 | 0.0025 | 3.43 |
| C[C@](Cc1c[nH]c2ccccc12)(NC(=O)OC1C2CC3CC(C2)CC1C3)C(=O)NN1CCCCC1 (stereo partly specified) | 194 | 0.0197 | 3.83 |
| C[C@](Cc1c[nH]c2ccccc12)(NC(=O)OC1C2CC3CC(C2)CC1C3)C(=O)NC(CC(=O)O)CC(=O)O (stereo partly specified) | 8.9 | 1.77 | 15.7 |
| C[C@](Cc1c[nH]c2ccccc12)(NC(=O)OC1C2CC3CC(C2)CC1C3)C(=O)NC1CC2CCC1C2 (stereo in doubt; 21) [listing 2 of 2 here] | 18.6 |  |  |
| CC1CCCCC1NC(=O)[C@@](C)(Cc1c[nH]c2ccccc12)NC(=O)OC1C2CC3CC(C2)CC1C3 (stereo partly specified) | 71.4 | 0.039 | 2.78 |

Continued by falling IC50 [3], values first:

| Ratio [1] | IC50 [2] [µM] | IC50 [3] [µM] | Structure (SMILES) |
| --- | --- | --- | --- |
| 238 | 0.0065 | 1.56 | C[C@](Cc1c[nH]c2ccccc12)(NC(=O)OC1C2CC3CC(C2)CC1C3)C(=O)NN1CC2CCC(CC2)C1 (stereo partly specified) |
| 18.4 | 0.083 | 1.53 | C[C@](Cc1c[nH]c2ccccc12)(NC(=O)OC1C2CC3CC(C2)CC1C3)C(=O)NC1(C(=O)O)CCCCC1 (stereo partly specified) |
| 12.5 | 0.121 | 1.51 | C[C@](Cc1c[nH]c2ccccc12)(NC(=O)OC1C2CC3CC(C2)CC1C3)C(=O)NC1(CO)CCCCC1 (stereo partly specified) |
| 429 | 0.0035 | 1.5 | C[C@](Cc1c[nH]c2ccccc12)(NC(=O)OC1C2CC3CC(C2)CC1C3)C(=O)NC1CCCCC1C#N (stereo partly specified) |
|  | 0.0785 | 1.46 | C[C@](Cc1c[nH]c2ccccc12)(NC(=O)OC1C2CC3CC(C2)CC1C3)C(=O)NC1CC2CCC1C2 (stereo in doubt; 21) [listing 1 of 2 here] |
| 5.3 | 0.268 | 1.42 | C[C@](Cc1c[nH]c2ccccc12)(NC(=O)OC1C2CC3CC(C2)CC1C3)C(=O)NC1(CO)CCCC1 (stereo partly specified) |
|  |  | 1.38 | C[C@](Cc1c[nH]c2ccccc12)(NC(=O)OC1C2CC3CC(C2)CC1C3)C(=O)NC1CCCCC1O (stereo partly specified) |
|  | 0.166 | 1.25 | C[C@](Cc1c[nH]c2ccccc12)(NC(=O)OC1C2CC3CC(C2)CC1C3)C(=O)NC1CC2CCC1C2 (stereo in doubt; 22) [listing 2 of 2 here] |
| 267 | 0.00465 | 1.24 | C[C@](Cc1c[nH]c2ccccc12)(NC(=O)OC1C2CC3CC(C2)CC1C3)C(=O)N[C@@H]1CCCCC[C@H]1O (stereo partly specified) |
| 5.5 | 0.214 | 1.17 | COC(=O)CC(CC(=O)OC)NC(=O)[C@@](C)(Cc1c[nH]c2ccccc12)NC(=O)OC1C2CC3CC(C2)CC1C3 (stereo partly specified) |
| 708 | 0.00099 | 0.701 | C[C@](Cc1c[nH]c2ccccc12)(NC(=O)OC1C2CC3CC(C2)CC1C3)C(=O)NC1CCCCC1C(=O)O (stereo partly specified) |
